Measured values: patent US9085576B2 (AMGEN INC., priority 2013, dated 2015)

What was measured:
[1] = molecular target: Beta Secretase enzyme (BACE) (Homo sapiens (Human), UniProt P56817); assay: In vitro enzymatic BACE FRET assay; type: biochemical; settings: read-out: BACE1 Enzyme assay IC50
Cathepsin D (Cat D) = Cathepsin D (Cat D) (Homo sapiens (Human), UniProt P07339); assay: In vitro enzymatic Cathepsin D (Cat D) FRET assay; type: biochemical; settings: read-out: CatD IC50
BACE = BACE (Homo sapiens (Human), UniProt P56817); assay: In vitro BACE cell-based assay (Aβ40 in conditioned medium, sandwich ELISA)
Sequence of BACE (P56817 46-501, species assumed): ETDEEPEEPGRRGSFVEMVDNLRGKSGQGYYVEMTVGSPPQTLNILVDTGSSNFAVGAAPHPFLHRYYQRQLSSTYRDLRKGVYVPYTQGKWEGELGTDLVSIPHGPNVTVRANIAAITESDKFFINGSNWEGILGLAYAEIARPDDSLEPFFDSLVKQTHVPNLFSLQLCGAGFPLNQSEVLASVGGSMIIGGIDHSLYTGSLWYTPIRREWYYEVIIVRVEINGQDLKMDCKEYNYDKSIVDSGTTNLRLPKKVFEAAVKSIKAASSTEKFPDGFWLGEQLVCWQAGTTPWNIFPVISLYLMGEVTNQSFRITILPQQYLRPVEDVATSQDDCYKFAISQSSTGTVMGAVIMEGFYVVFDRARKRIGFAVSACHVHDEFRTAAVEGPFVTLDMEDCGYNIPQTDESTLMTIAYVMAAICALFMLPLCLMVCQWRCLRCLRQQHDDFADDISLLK

Sequence of Cathepsin D (Cat D) (P07339 65-412, species assumed): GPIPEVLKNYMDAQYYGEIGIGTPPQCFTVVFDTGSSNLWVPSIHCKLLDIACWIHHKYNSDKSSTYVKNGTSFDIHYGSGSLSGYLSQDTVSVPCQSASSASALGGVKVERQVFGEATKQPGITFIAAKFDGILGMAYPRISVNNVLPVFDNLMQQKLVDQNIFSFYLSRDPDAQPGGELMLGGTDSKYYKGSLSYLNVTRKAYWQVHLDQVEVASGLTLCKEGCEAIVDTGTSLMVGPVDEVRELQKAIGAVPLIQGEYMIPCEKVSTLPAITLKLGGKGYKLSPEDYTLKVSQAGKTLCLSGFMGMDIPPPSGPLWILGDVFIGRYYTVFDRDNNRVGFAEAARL
Sequence of Beta Secretase enzyme (BACE) (P56817 46-501): as the sequence (P56817 46-501, species assumed) above

IC50 [1]	IC50 (Cathepsin D (Cat D))	IC50 (BACE)	SMILES
13.1 µM	565 µM	3.36 µM	CS(=O)(=O)c1ccc(C(=O)Nc2ccc(F)c([C@@]3(C(F)F)N=C(N)O[C@@H]4C[C@@H]43)c2)nc1 [Example 182, N-(3-((1R,5S,6R)-3-amino-5-(difluoromethyl)-2-oxa-4-azabicyclo[4.1.0]hept-3-en-5-yl)-4-fluorophenyl)-5-(methylsulfonyl) picolinamide]
0.0998 µM	882 µM	0.0218 µM	NC1=N[C@](CF)(c2cc(NC(=O)c3ccc(OCF)cn3)ccc2Cl)[C@H]2C[C@H]2O1 [Example 183, N-(3-((1R,5S,6R)-3-amino-5-(fluoromethyl)-2-oxa-4-azabicyclo[4.1.0]hept-3-en-5-yl)-4-chlorophenyl)-5-(fluoromethoxy) picolinamide]
0.357 µM	1090 µM	0.62 µM	Cc1cc(OCC#N)cnc1C(=O)Nc1ccc(F)c([C@@]2(C(F)F)N=C(N)O[C@@H]3C[C@@H]32)c1 [Example 184, N-(3-((1R,5S,6R)-3-amino-5-(difluoromethyl)-2-oxa-4-azabicyclo[4.1.0]hept-3-en-5-yl)-4-fluorophenyl)-5-(cyanomethoxy)-3-methylpicolinamide]
0.107 µM	753 µM	0.148 µM	Cc1cnc(C(=O)Nc2ccc(F)c([C@@]3(C(F)F)N=C(N)O[C@@H]4C[C@@H]43)c2)c(C)c1 [Example 185, N-(3-((1R,5S,6R)-3-amino-5-(difluoromethyl)-2-oxa-4-azabicyclo[4.1.0]hept-3-en-5-yl)-4-fluorophenyl)-3,5-dimethylpicolinamide]
0.061 µM	768 µM	0.0345 µM	Cc1cc(C(F)F)cnc1C(=O)Nc1ccc(F)c([C@@]2(C(F)F)N=C(N)O[C@@H]3C[C@@H]32)c1 [Example 186, N-(3-((1R,5S,6R)-3-amino-5-(difluoromethyl)-2-oxa-4-azabicyclo[4.1.0]hept-3-en-5-yl)-4-fluorophenyl)-5-(difluoromethyl)-3-methylpicolinamide]
3.44 µM	667 µM	1.41 µM	COc1ccc(C(=O)Nc2ccc(F)c([C@@]3(C(F)F)N=C(N)O[C@@H]4C[C@@H]43)c2)nn1 [Example 187, N-(3-((1R,5S,6R)-3-amino-5-(difluoromethyl)-2-oxa-4-azabicyclo[4.1.0]hept-3-en-5-yl)-4-fluorophenyl)-6-methoxypyridazine-3-carboxamide]
0.04 µM	159 µM	0.0279 µM	Cc1cc(C(F)(F)F)cnc1C(=O)Nc1ccc(F)c([C@@]2(C(F)F)N=C(N)O[C@@H]3C[C@@H]32)c1 [Example 188, N-(3-((1R,5S,6R)-3-amino-5-(difluoromethyl)-2-oxa-4-azabicyclo[4.1.0]hept-3-en-5-yl)-4-fluorophenyl)-3-methyl-5-(trifluoromethyl) picolinamide]
0.12 µM	770 µM	0.386 µM	Cc1cc(OCC(F)(F)F)cnc1C(=O)Nc1ccc(F)c([C@@]2(C(F)F)N=C(N)O[C@@H]3C[C@@H]32)c1 [Example 189, N-(3-((1R,5S,6R)-3-amino-5-(difluoromethyl)-2-oxa-4-azabicyclo[4.1.0]hept-3-en-5-yl)-4-fluorophenyl)-3-methyl-5-(2,2,2-trifluoroethoxy) picolinamide]
0.151 µM	1470 µM	0.0735 µM	Cc1ccc(C(=O)Nc2ccc(F)c([C@@]3(C(F)F)N=C(N)O[C@@H]4C[C@@H]43)c2)nc1 [Example 190, N-(3-((1R,5S,6R)-3-amino-5-(difluoromethyl)-2-oxa-4-azabicyclo[4.1.0]hept-3-en-5-yl)-4-fluorophenyl)-5-methylpicolinamide]
0.415 µM	1070 µM	0.536 µM	CC(F)(F)Oc1ccc(C(=O)Nc2ccc(F)c([C@@]3(C(F)F)N=C(N)O[C@@H]4C[C@@H]43)c2)nc1 [Example 191, N-(3-((1R,5S,6R)-3-amino-5-(difluoromethyl)-2-oxa-4-azabicyclo[4.1.0]hept-3-en-5-yl)-4-fluorophenyl)-5-(1,1-difluoroethoxy) picolinamide]
0.143 µM	1230 µM	0.027 µM	COc1cnc(C(=O)Nc2ccc(F)c([C@@]3(CF)N=C(N)O[C@@H]4C[C@@H]43)c2)cn1 [Example 194, N-(3-((1R,5S,6R)-3-amino-5-(fluoromethyl)-2-oxa-4-azabicyclo[4.1.0]hept-3-en-5-yl)-4-fluorophenyl)-5-methoxypyrazine-2-carboxamide]
0.124 µM	759 µM	0.0156 µM	COc1ccc(C(=O)Nc2ccc(F)c([C@@]3(CF)N=C(N)O[C@@H]4C[C@@H]43)c2)nc1 [Example 195, N-(3-((1R,5S,6R)-3-amino-5-(fluoromethyl)-2-oxa-4-azabicyclo[4.1.0]hept-3-en-5-yl)-4-fluorophenyl)-5-methoxypicolinamide]
0.0324 µM	703 µM	0.009 µM	Cc1cc(C#N)cnc1C(=O)Nc1ccc(F)c([C@@]2(CF)N=C(N)O[C@@H]3C[C@@H]32)c1 [Example 196, N-(3-((1R,5S,6R)-3-amino-5-(fluoromethyl)-2-oxa-4-azabicyclo[4.1.0]hept-3-en-5-yl)-4-fluorophenyl)-5-cyano-3-methylpicolinamide]
0.0066 µM	260 µM	0.0023 µM	C#CCOc1cnc(C(=O)Nc2ccc(F)c([C@@]3(CF)N=C(N)O[C@@H]4C[C@@H]43)c2)cn1 [Example 197, N-(3-((1R,5S,6R)-3-amino-5-(fluoromethyl)-2-oxa-4-azabicyclo[4.1.0]hept-3-en-5-yl)-4-fluorophenyl)-5-(prop-2-yn-1-yloxy)pyrazine-2-carboxamide]
0.0338 µM	349 µM	0.0152 µM	Cc1cc(Cl)cnc1C(=O)Nc1ccc(F)c([C@@]2(CF)N=C(N)O[C@@H]3C[C@@H]32)c1 [Example 198, N-(3-((1R,5S,6R)-3-amino-5-(fluoromethyl)-2-oxa-4-azabicyclo[4.1.0]hept-3-en-5-yl)-4-fluorophenyl)-5-chloro-3-methylpicolinamide]
0.189 µM	465 µM	0.025 µM	Cc1c(C(=O)Nc2ccc(F)c([C@@]3(CF)N=C(N)O[C@@H]4C[C@@H]43)c2)nc2ccc(Cl)cn12 [Example 200, N-(3-((1R,5S,6R)-3-amino-5-(fluoromethyl)-2-oxa-4-azabicyclo[4.1.0]hept-3-en-5-yl)-4-fluorophenyl)-6-chloro-3-methylimidazo[1,2-a]pyridine-2-carboxamide]
0.499 µM	430 µM	0.159 µM	NC1=N[C@](CF)(c2cc(NC(=O)c3cc4ccccc4cn3)ccc2F)[C@H]2C[C@H]2O1 [Example 202, N-(3-((1R,5S,6R)-3-amino-5-(fluoromethyl)-2-oxa-4-azabicyclo[4.1.0]hept-3-en-5-yl)-4-fluorophenyl) isoquinoline-3-carboxamide]
0.0089 µM	303 µM	0.0039 µM	CC#CCOc1ccc(C(=O)Nc2ccc(F)c([C@@]3(CF)N=C(N)O[C@@H]4C[C@@H]43)c2)nc1 [Example 203, N-(3-((1R,5S,6R)-3-amino-5-(fluoromethyl)-2-oxa-4-azabicyclo[4.1.0]hept-3-en-5-yl)-4-fluorophenyl)-5-(but-2-yn-1-yloxy)picolinamide]
